Patent US20260325504A1, “Genetically Engineered Human Pituitary Corticotroph Tumor Organoids Exhibit Divergent Responses to Selective Glucocorticoid Receptor Modulators” (Corcept Therapeutics Incorporated, priority 2022, published 2026)
“Also recorded” adds a separate entry of the source. Starred links: 1 amine or outer side, 2 acyl side, 3 side chain; linkers in the order of their positions; H or OH if unused. Non-standard residues stand in square brackets, D forms with d. Residues, ends and D or L forms follow the SMILES beside them. Groups on a side chain read outwards from the residue. *: point of attachment. Ethylenediamine = C(CN[*:2])N[*:1]; Hyp = O=C(O)[C@@H]1C[C@@H](O)CN1; Phg = N[C@H](C(=O)O)c1ccccc1; CO = O=C([*:1])[*:2]; Bn = c1ccc(C*)cc1

Legend:
[1] = SST14 and SST28; cited from earlier work
iPSC^ctrl organoids [2] = experiment: EdU uptake (proliferation) in iPSCctrl organoids; type: cell-based, human; settings: 100 nM pretreatment 2 h before mifepristone
Experimental: (§1) iPSCs were stained for pituitary specific hormones including luteinizing hormone (LH), follicle-stimulating hormone (FSH), growth hormone (GH), prolactin (PRL), ACTH, cytokeratin 8/18 (CAM5.2), pituitary transcription factor PIT-1 and neuroendocrine marker Synaptophysin (Table 5). Cultures were immunostained for proliferation marker EdU (Click-IT EdU Alexa Fluor 555 Imaging Kit, Thermo Fisher Scientific C10338). Antibody dilutions were determined based on manufacturer guidelines and antibody titration (Table 5). Staining was conducted according to previously published protocols. Briefly, organoids and iPSCs grown in 8-well glass bottom chamber slides were fixed using 3.7% formaldehyde, washed with DPBS, permeabilized with 0.5% Triton X-100 (SIGMA X-100, PBS-T, 20 min at room temperature), washed with 0.01% PBS-T, and blocked with 2% donkey serum (Jackson Immuno Research 017-000-121) for 1 hour at room temperature. After blocking, primary antibodies were added and incubated overnight at 4° C. Slides were washed with 0.01% PBS-T and incubated with secondary antibodies (Table 5) with Hoechst (Thermo Fisher Scientific H1399) for 1 hour at room temperature. Organoids were washed and stored in PBS at 4° C. until microscopic analysis. High content confocal microscopy was performed using the Nikon Ti2-E Inverted Microscope (with a Crest X-Light V2 L-FOV Spinning Disk Confocal) at the University of Arizona Cancer Center, or a ZEISS LSM880 34 channel Laser Scanning Confocal Microscope at University of Arizona Marley Imaging Core. Fluorescence intensity was quantified as the percentage of marker-positive cells versus total cells, using Nikon Elements Software (Version 5.21.05). Proliferation for each iPSC line was quantified as the percentage of EdU-positive cells versus total cells.
(§2) Sonic Hedgehog (SHH) was withdrawn from the organoid growth media 16 hours prior to treatment. The experimental treatment groups included: vehicle (Veh), mifepristone (500 nM, Selleckchem S2606), GANT61 (5 μM, Stemcell Technologies 73692), ketoconazole (Keto, 10 μM, Selleckchem S1353), pasireotide (Pas, 100 nM, Target Mol TP2207-SB001), octreotide (Oct, 100 nM, Selleckchem P1017), mifepristone plus GANT61, mifepristone plus Keto, mifepristone plus Pas, relacorilant (500 nM, Corcept Therapeutics CORT125134), relacorilant plus Pas, relacorilant plus Oct, or dexamethasone (Dexa, 100 nM, SIGMA S4902). In the combination treatments, cultures were pretreated with the GANT61, Keto, Pas or Oct for 2 hours prior to treatment with mifepristone or Rela. […] The IC50 values used for each hPITO line for each drug were determined based on dose responses (FIG. 12). […]

iPSC^USP48MV organoids [3] = experiment: EdU uptake (proliferation) in iPSCUSP48MV organoids; type: cell-based, human; settings: 100 nM pretreatment 2 h before mifepristone
Experimental: as §1, §2

iPSC^ctrl organoids [4] = experiment: ACTH secretion ELISA, iPSCctrl organoids; type: cell-based, human; settings: FIG. 6G
Experimental: (§3) Sonic Hedgehog (SHH) was withdrawn from the organoid growth media 16 hours prior to treatment. The experimental treatment groups included: vehicle (Veh), mifepristone (500 nM, Selleckchem S2606), GANT61 (5 μM, Stemcell Technologies 73692), ketoconazole (Keto, 10 μM, Selleckchem S1353), pasireotide (Pas, 100 nM, Target Mol TP2207-SB001), octreotide (Oct, 100 nM, Selleckchem P1017), mifepristone plus GANT61, mifepristone plus Keto, mifepristone plus Pas, relacorilant (500 nM, Corcept Therapeutics CORT125134), relacorilant plus Pas, relacorilant plus Oct, or dexamethasone (Dexa, 100 nM, SIGMA S4902). In the combination treatments, cultures were pretreated with the GANT61, Keto, Pas or Oct for 2 hours prior to treatment with mifepristone or Rela. PitNET tissue derived organoids hPITO36, hPITO37, hPITO38, hPITO39, and hPITO40 were treated with the following experimental conditions: Vehicle (1), pasireotide (2), relacorilant (3), relacorilant & pasireotide (4), mifepristone (5), mifepristone & pasireotide (6). The IC50 values used for each hPITO line for each drug were determined based on dose responses (FIG. 12). All organoid cultures were treated for 48 hours prior to analysis.
(§4) Organoid conditioned media was collected and ACTH secretion using an ELISA according to the manufacturer's protocol (Novus Biologicals Human ACTH ELISA Kit NBP2-66401). The optical density was measured at a wavelength of 450 nm, and ACTH concentration (pg/mL) was interpolated using a standard curve with a 4-parameter logistic regression analysis using GraphPad Prism (v9.3.1).

iPSC^USP48MV organoids [5] = experiment: ACTH secretion ELISA, iPSCUSP48 organoids; type: cell-based, human; settings: FIG. 7G
Experimental: as §3, §4

ACTH = experiment: Spectral flow cytometry, ACTH positive cells, hPITOs; type: cell-based, human; settings: hPITO, pretreatment before mifepristone, FIGS. 9I, J
Description: 1.3 Generation and Culture of Human PitNET Tissue Organoids (hPITOs)
Patients undergoing planned transsphenoidal surgery for PitNETs were identified in the outpatient neuroendocrinology and neurosurgery clinics and collected by the St. Joseph's Hospital and Barrow Neurological Institute Biobank under the collection protocol PHXA-05TS038, and outcomes data protocol PHXA-0004-72-29 with approval of the Institutional Review Board (IRB) and patient consent. De-identified samples were shipped in collection and transport media (Table 3) to the Zavros laboratory (University of Arizona) for processing within 24 hours of collection. Resected PitNET tissues were washed with Dulbeccos Phosphate Buffered Saline (DPBS) supplemented with 1× Penicillin/Streptomycin, 1× Kanamycin and 1× Amphotericin/Gentamycin, minced into smaller pieces, and incubated with digestion buffer (Dulbecco's Modified Eagle Medium/Nutrient Mixture F-12 (DMEM/F12) supplemented with 0.4% Collagenase 2, 0.1% Hyaluronic Acid, 0.03% Trypsin). The tissue was incubated with Accutase (Thermo Fisher Scientific) for a further 5 minutes, and the cells were pelleted and washed with DPBS supplemented with antibiotics. Dissociated cells were then seeded as Matrigel™ domes in culture dishes and overlaid with growth media (Table 4). Media was replaced every 3 days and organoids were harvested for downstream experiments or passaged after 15 days of culture (FIG. 1B).
Sonic Hedgehog (SHH) was withdrawn from the organoid growth media 16 hours prior to treatment. […] The IC50 values used for each hPITO line for each drug were determined based on dose responses (FIG. 12). […]

hPITO37 = experiment: Dose response of hPITO37; type: cell-based, human; settings: hPITO37, FIG. 12
Experimental: as §3

[6] = test system: patients with Cushing's syndrome; settings: pasireotide monotherapy, patients with CD, cited from earlier work
SSTR5 = settings: cited from earlier work

Molecule | half-life [1] | effect on proliferative response to mifepristone (EdU uptake) (iPSC^ctrl organoids [2]) | effect on proliferative response to mifepristone (EdU uptake) (iPSC^USP48MV organoids [3]) | effect on ACTH secretion in response to mifepristone (iPSC^ctrl organoids [4]; 100 nM pretreatment 2 h before mifepristone) | reduction of hormone (ACTH) secretion in combination with relacorilant (iPSC^ctrl organoids [4]; with relacorilant) | effect on ACTH secretion in response to mifepristone (iPSC^USP48MV organoids [5]; iPSCUSP48, 100 nM pretreatment 2 h before mifepristone) | reduction of hormone (ACTH) secretion in combination with relacorilant (iPSC^USP48MV organoids [5]; iPSCUSP48MV, with relacorilant) | effect on mifepristone-induced increase of ACTH expressing cells (ACTH) | drug response (sensitivity) (hPITO37) | patients with normalized cortisol [6] | patients with normalized urinary free cortisol ([6]; two large prospective studies) | binding to / activation of SSTR5 (SSTR5)
SST | < 3 min |  |  |  |  |  |  |  |  |  |  | 
NCCCC[C@@H]1NC(=O)[C@@H](Cc2c[nH]c3ccccc23)NC(=O)[C@H](c2ccccc2)NC(=O)[C@@H]2C[C@@H](OC(=O)NCCN)CN2C(=O)[C@H](Cc2ccccc2)NC(=O)[C@H](Cc2ccc(OCc3ccccc3)cc2)NC1=O [pasireotide] (cyclo([Hyp]([CO-Ethylenediamine])[Phg][dW]KY(Bn)F)) |  | no effect | no effect | significantly reduced ACTH secretion | greater magnitude compared to that of octreotide plus relacorilant | significantly reduced ACTH secretion | greater magnitude compared to that of octreotide plus relacorilant | not inhibited | insensitive | up to 42% | up to 42% | high-affinity binding to SSTR5; also recorded: preferentially binds or activates somatostatin receptor type 5 (SSTR5)
